According to patent publication US10085986B2, “Pyrimidinone compounds and their use” (Takeda Pharmaceutical Company Limited, priority 2011, dated 2018):

Target: Human DAAO Enzyme (Homo sapiens (Human), UniProt P14920)
Assay: In vitro DAAO enzyme assay (Amplex Red detection of H2O2 from D-Serine)
Assay type: biochemical
Details: inhibition of DAAO activity in the presence of 10 mM D-Serine; 60 minutes at 25° C.
Procedure: The functional activity of compounds inhibiting the DAAO enzyme was determined by utilizing the co-product of the catalysis of D-Serine, H2O2 which can be quantitatively measured using the Amplex Red (Invitrogen) detection. Amplex® Red reagent is a colorless substrate that reacts with hydrogen peroxide (H2O2) with a 1:1 stoichiometry in the presence of […] to produce highly fluorescent resorufin (excitationemission maxima=570/585 nm). The changes in fluorescence were monitored by a fluorescence plate reader, Envision (Perkin Elmer) and increases in DAAO activity were readily detected upon addition of D-Serine and suppression of this response observed with the application of test compounds.
The Km of D-Serine was measured for each enzyme batch to maintain consistency; this Km was used in subsequent assays.
On the day of the assay compounds were serially diluted in DMSO before being diluted 1:20 with assay buffer (20 mM Tris ph 7.4). A 5 μl portion of assay buffer was added to the wells of a 384 clear base black walled plate (Corning), 5 μl of diluted compound was then added via automated plate to plate transfer using the Bravo liquid handler (Agilent technologies) followed by 5 μl of human DAAO enzyme and then 5 μl D-Serine 50 mM was added to all but the negative control wells (final concentration of 10 mM). Finally 5 μl Amplex red reagent (Invitrogen) was added to all wells as per manufacturer's protocol. The plate was incubated for 60 minutes in the dark at 25° C. and the fluorescence in each well was measured in the Envision plate reader.
The IC50 values for compounds were determined from ten point half log scale dose-response studies and represent the concentration of compound required to […] 50% inhibition of DAAO activity in the presence of 10 mM D-Serine. Concentration response curves were generated using the average of duplicate wells for each data point and analyzed using nonlinear regression and four parameter curve fit.

Chain of Human DAAO Enzyme (P14920 whole entry): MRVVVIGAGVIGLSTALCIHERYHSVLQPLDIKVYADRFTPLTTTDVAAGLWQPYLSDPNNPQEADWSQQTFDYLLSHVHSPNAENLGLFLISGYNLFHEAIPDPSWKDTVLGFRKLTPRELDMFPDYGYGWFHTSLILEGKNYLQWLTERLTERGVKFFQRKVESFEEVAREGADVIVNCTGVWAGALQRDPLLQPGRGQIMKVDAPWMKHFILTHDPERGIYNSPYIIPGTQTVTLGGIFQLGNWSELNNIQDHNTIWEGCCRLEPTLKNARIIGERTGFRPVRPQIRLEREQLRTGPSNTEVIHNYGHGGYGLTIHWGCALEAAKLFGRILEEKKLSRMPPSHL

With `O=c1[nH]c(SCc2cccc(Cl)c2)ncc1O` [Example 1, 2-(3-Chlorobenzylthio)-5-hydroxypyrimidin-4(3H)-one] the IC50 was 120 nM.
With `O=c1[nH]c(SCc2ccccc2)ncc1O` [Example 2, 2-(Benzylsulfanyl)-5-hydroxypyrimidin-4(3H)-one] the IC50 was 230 nM.
`O=c1[nH]c(SCc2ccc(Cl)cc2)ncc1O` [Example 4, 2-[(4-Chlorobenzyl)sulfanyl]-5-hydroxypyrimidin-4(3H)-one] gave an IC50 of 220 nM.
For `O=c1[nH]c(SCc2ccc3ccccc3c2)ncc1O` [Example 5, 5-Hydroxy-2-[(naphthalen-2-ylmethyl)sulfanyl]pyrimidin-4(3H)-one], the IC50 was 120 nM.
`O=c1[nH]c(SCc2cccc(F)c2)ncc1O` [Example 6, 2-[(3-Fluorobenzyl)sulfanyl]-5-hydroxypyrimidin-4(3H)-one] was tested, and the IC50 was 170 nM.
`COc1cccc(CSc2ncc(O)c(=O)[nH]2)c1` [Example 9, 5-Hydroxy-2-[(3-methoxybenzyl)sulfanyl]pyrimidin-4(3H)-one] gave an IC50 of 160 nM.
In the case of `O=c1[nH]c(SCc2cccc(C(F)(F)F)c2)ncc1O` [Example 10, 5-Hydroxy-2-{[3-(trifluoromethyl)benzyl]sulfanyl}pyrimidin-4(3H)-one], the IC50 is reported as 150 nM.
Compound `O=c1[nH]c(SCc2cc(F)cc(Cl)c2)ncc1O` [Example 11, 2-[(3-Chloro-5-fluorobenzyl)sulfanyl]-5-hydroxypyrimidin-4(3H)-one] has an IC50 of 150 nM.
With `Cc1nc(-c2cccc(CSc3ncc(O)c(=O)[nH]3)c2)no1` [Example 12, 5-Hydroxy-2-{[3-(5-methyl-1,2,4-oxadiazol-3-yl)benzyl]-sulfanyl}-pyrimidin-4(3H)-one] the IC50 was 500 nM.
In the case of `CC(Sc1ncc(O)c(=O)[nH]1)c1ccccc1` (stereo not shown) [Example 14, 5-Hydroxy-2-[(1-phenylethyl)sulfanyl]pyrimidin-4(3H)-one], the IC50 is reported as 1200 nM.
`O=c1[nH]c(SCc2cccc3c2OCCO3)ncc1O` [Example 16, 2-[(2,3-Dihydro-1,4-benzodioxin-5-ylmethyl)sulfanyl]-5-hydroxypyrimidin-4(3H)-one] gave an IC50 of 540 nM.
`O=c1[nH]c(SCc2cccc(OC(F)F)c2)ncc1O` [Example 18, 2-(3-(Difluoromethoxy)benzylthio)-5-hydroxypyrimidin-4(3H)-one] showed an IC50 of 190 nM.
`O=c1[nH]c(SCc2cccnc2)ncc1O` [Example 20, 5-Hydroxy-2-(pyridin-3-ylmethylthio)pyrimidin-4(3H)-one] gave an IC50 of 470 nM.
In the case of `Cc1cc(CSc2ncc(O)c(=O)[nH]2)n(C)n1` [Example 21, 2-((1,3-Dimethyl-1H-pyrazol-5-yl)methylthio)-5-hydroxypyrimidin-4(3H)-one], the IC50 is reported as 1600 nM.
With `O=c1[nH]c(SCc2ccc3nccn3c2)ncc1O` [Example 26, 5-Hydroxy-2-[(imidazo[1,2-a]pyridin-6-ylmethyl)sulfanyl]-pyrimidin-4(3H)-one] the IC50 was 740 nM.
`O=c1[nH]c(CSc2ccccc2)ncc1O` [Example 30, 5-Hydroxy-2-[(phenylsulfanyl)methyl]pyrimidin-4(3H)-one] showed an IC50 of 2800 nM.
In the case of `O=c1[nH]c(COc2ccccc2)ncc1O` [Example 31, 5-Hydroxy-2-(phenoxymethyl)pyrimidin-4(3H)-one], the IC50 is reported as 3200 nM.
`O=c1[nH]c(CCc2ccccc2)ncc1O` [Example 33, 5-Hydroxy-2-(2-phenylethyl)pyrimidin-4(3H)-one] showed an IC50 of 1200 nM.
Work on `O=c1[nH]c(SCc2ccccc2)nc(C(F)(F)F)c1O` [Example 34, 2-(Benzylsulfanyl)-5-hydroxy-6-(trifluoromethyl)pyrimidin-4(3H)-one] yielded an IC50 of 2700 nM.
